From US12616704B2, “Cannabichromene formulation for pain management” (Zyus Life Sciences Inc., priority 2020, dated 2026)

Columns and labels:
[1] = system: SNL-induced mechanical hypersensitivity; assay: Tactile allodynia test (electronic von Frey, evF) in spinal nerve ligation (SNL) model; assay type: in vivo, Sprague-Dawley rats; conditions: for evF, Vehicle vs. treatment: Summary / evF, Vehicle vs. treatment: Predicted (LS) mean diff.: between groups; for evF, Vehicle vs. treatment: Predicted (LS) mean diff. / evF, Pre-Dosing vs. 2 h-PD: Predicted (LS) mean diff. / evF, Pre-Dosing vs. 4 h-PD: Predicted (LS) mean diff. / evF, Pre-Dosing vs. 8 h-PD: Predicted (LS) mean diff. / evF, Pre-Dosing vs. 24 h-PD: Predicted (LS) mean diff.: PWT % from baseline; for Post-SNL vs. BL: Predicted (LS) mean diff.: evF PWT % from baseline; for Post-SNL vs. BL: Predicted (LS) mean diff. / Post-SNL vs. BL: Significant? / Post-SNL vs. BL: Summary: baseline vs. D7 (pre-dosing, before treatment); for Post-SNL vs. BL: Predicted (LS) mean diff. / Post-SNL vs. BL: Significant? / Post-SNL vs. BL: Summary / evF, Pre-Dosing vs. 2 h-PD: Summary / evF, Pre-Dosing vs. 4 h-PD: Summary / evF, Pre-Dosing vs. 8 h-PD: Summary / evF, Pre-Dosing vs. 24 h-PD: Summary / evF, Pre-Dosing vs. 2 h-PD: Predicted (LS) mean diff. / evF, Pre-Dosing vs. 4 h-PD: Predicted (LS) mean diff. / evF, Pre-Dosing vs. 8 h-PD: Predicted (LS) mean diff. / evF, Pre-Dosing vs. 24 h-PD: Predicted (LS) mean diff.: within group; for duration of prolonged anti-nociceptive effect after one-time administration / Post-SNL vs. BL: Significant? / Post-SNL vs. BL: Summary: evF; for AUC of % PWT curve, Vehicle vs. treatment: Mean Diff. / AUC of % PWT curve, Vehicle vs. treatment: Summary: pre-dosing to 24 h PD; for evF, Pre-Dosing vs. 24 h-PD: Summary / evF, Pre-Dosing vs. 24 h-PD: Predicted (LS) mean diff.: pregabalin 50 mg/kg i.p. re-dosed 2 h before evF on D9
Method: The treatment groups received the following test article mixtures: • Group 1: treated with vehicle (0.9% saline) • Group 2: treated with Pregabalin (50 mg/kg) • Group 3: treated with CBC (10 mg/kg)
Administration of Treatments. CBC (cannabichromene) formulation, the vehicle, or pregabalin treatment was administered according to Table 1 on study day 8 to all study animals, and on study day 10 to 6 animals per group. The dousing route of CBC or the vehicle were intragastric (p.o.), while pregabalin was administered intraperitoneally (i.p.). In addition to D8, pregabalin was administered on D9, at 2 h prior to the evf test. All animals of the pregabalin group were euthanized on D9, following the last test trial. The CBC was dissolved and diluted to one of the following vehicles:
Spinal Nerve Ligation (SNL) Surgery. The animals were enrolled to SNL surgery in daily cohorts of n=6, according to the number of animals operated per day). The rat first received an intraperitoneal dose of 0.03 mg/kg buprenorphine (Temgesic), at minimum of 30 minutes prior to the surgery, to alleviate the operative and postoperative pain unrelated to neuropathy. The rats were anesthetized with isoflurane in 70% N2O and 30% O2; with a flow rate of 300 ml/min. Anesthesia was inducted with 5% isoflurane for 2-3 min, and maintained through a snout mask with 1-2% isoflurane thereafter.
A dorsal incision extending from L3 to S2 was performed to the medial dorsal area of the rat using aseptic technique. The L6/S1 posterior intrarticular process was exposed using a combination of blunt and sharp dissection. The L6 transverse process in the spinal column was visualized and partially removed without manipulating the nerves, followed by exposing the L4 and L5 spinal nerves distal to their emergence from the intervertebral foramina. Tight double knots of 6-0 silk suture were placed on both spinal nerves.
Tactile Allodynia Test (evF). In this study, mechanical sensitivity to punctate stimulus was defined at six time points, by using electronic von Frey (evF) device with the attached analysis software (Somedic®, Sweden).
Rats displaying inborn oversensitivity were disqualified from the study. Oversensitivity was defined as baseline paw withdrawal threshold (PWT) of <20 g with 1 mm probe. Following the baseline evF testing, the rats were weighed and numbered prior to surgery.
To perform the evF test, the rats were placed in individual von Frey test chambers standing on an elevated steel mesh. The rats were allowed to adapt in the chambers, and the test emerged after they had settled down after investigating the chamber and grooming (approximately 15 min).
Mechanical allodynia was assessed by evF test prior to SNL surgery (baseline), to define the individual “innate” sensitivity levels of the study animals. Next, the evF was performed on D7 post-SNL, to assess the hypersensitivity evoked by the SNL surgery, and to evaluate pre-dosing sensitivity values. Next day (D8), the animals were tested by evF at 2 h, at 4 h, and at 8 h post-dosing (PD). The last evF time point occurred at 24 h PD, i.e. on D9. The listed post-dosing times were used for all groups except group 2, which on D9 received pregabalin at 2 h prior to evF.
The evF apparatus was used according to the manufacturer's instructions. Briefly, upon each measurement, the force was applied to mid-plantar surface of the hind paw in a linearly increasing rate. The used evF probe diameter was 1 mm, and the chosen ascent rate of force 10 g/s. Linearity of force application was monitored real-time. The applied force (in grams) causing paw withdrawal was recorded by the
Altogether 5 repeated measurements were applied to each hind paw at each time-point, leaving a minimum of 3-min interval between the repeats. Three values closest to the median were then averaged to produce result value for each paw at any given time point. Both ipsi- and contralateral paws were tested on each test day.
Statistical Analysis. […]

SNL model effect = assay: Data mining (cPCA) of kinematic gait data: SNL model (analgesic) and sedation effect scores; assay type: in vivo, rats
Method: Data mining was successfully performed to extend the multivariate kinematic data analysis and capture the analgesic effect of cannabichromene (CBC) on quantitative measurement of parameters attributed to the temporal aspects of motion to evaluate temporal aspects of motion, such as positions, angles, velocities, and accelerations of body segments and joints during motion.
Overall, 97 gait parameters were analyzed, and each parameter was averaged within each treatment group. A statistical method using Contrastive Principal Component Analysis (cPCA) was employed (Abid et al., 2018). The method of cPCA was designed to identify different combinations of original variables linked to the Spinal Nerve Ligation (SNL) model effect (pain) and learning effect. An orthogonalization procedure was then performed to create the obtained effects independent of learning and possible sedation. After the contrastive principal components (cPCs) (Model, Sedative) were established, the corresponding cPC scores were computed for each observation. The obtained cPC scores were further analyzed by using mixed two-way ANOVA followed by Dunnett's test of the estimated marginal means. The cPCA based analysis framework was implemented using R environment (R version 3.6.3). Statistical analysis was performed using Ime4 (Bates et al., 2015) and emmeans (R package version 1.4.5.) packages. The results of these comparisons were obtained by using all the previously identified components: model effect, learning effect and model orthogonal to learning.

[2] = Body weight monitoring in SNL study; assay type: in vivo, Sprague-Dawley rats; conditions: SNL rats; CBC 10 mg/kg, pregabalin 50 mg/kg; two-way ANOVA, Tukey's
Method: Body Weight Monitoring. The body weight of the animals was recorded at baseline evF testing, on the day of surgery (DO), and daily thereafter.

[3] = 2 h-PD, CBC 10 mg/kg p.o., pregabalin 50 mg/kg i.p.
[4] = 4 h-PD, CBC 10 mg/kg p.o., pregabalin 50 mg/kg i.p.
[5] = 8 h-PD, CBC 10 mg/kg p.o., pregabalin 50 mg/kg i.p.
[6] = 24 h-PD (D9), CBC 10 mg/kg p.o., pregabalin 50 mg/kg i.p. re-dosed 2 h before evF
[7] = CBC 10 mg/kg p.o., pregabalin 50 mg/kg i.p.

SMILES	evF, Vehicle vs. treatment: Summary [1, 3]	evF, Vehicle vs. treatment: Predicted (LS) mean diff. [1, 3]	evF, Vehicle vs. treatment: Summary [1, 4]	evF, Vehicle vs. treatment: Predicted (LS) mean diff. [1, 4]	evF, Vehicle vs. treatment: Summary [1, 5]	evF, Vehicle vs. treatment: Predicted (LS) mean diff. [1, 5]	evF, Vehicle vs. treatment: Summary [1, 6]	evF, Vehicle vs. treatment: Predicted (LS) mean diff. [1, 6]	evF, Vehicle vs. treatment: Summary ([1]; Pre-Dosing (D7))	evF, Vehicle vs. treatment: Predicted (LS) mean diff. ([1]; Pre-Dosing (D7))	Post-SNL vs. BL: Predicted (LS) mean diff. [1]	duration of prolonged anti-nociceptive effect after one-time administration [1, 7]	Post-SNL vs. BL: Significant? [1]	Post-SNL vs. BL: Summary [1]	AUC of % PWT curve, Vehicle vs. treatment: Mean Diff. [1, 7]	AUC of % PWT curve, Vehicle vs. treatment: Summary [1, 7]	evF, Pre-Dosing vs. 2 h-PD: Summary [1, 7]	evF, Pre-Dosing vs. 4 h-PD: Summary [1, 7]	evF, Pre-Dosing vs. 8 h-PD: Summary [1, 7]	evF, Pre-Dosing vs. 24 h-PD: Summary ([1]; CBC 10 mg/kg p.o.)	other results
CCCCCc1cc(O)c2c(c1)OC(C)(CCC=C(C)C)C=C2 (stereo not shown) [CBC, cannabichromene]	ns	−15.45	ns	−10.25	ns	−17.12	ns	−14.84	ns	−0.627	45.98	up to 8 hours	Yes	**** (p<0.0001, extremely/highly significant)	−50.00	** (p<0.01, very significant)	*** (p<0.001, extremely/highly significant)	* (p<0.05, significant)	* (p<0.05, significant)	ns	effect on SNL-induced hypersensitivity (evF), between-group ([1]; CBC 10 mg/kg p.o.): appears to evoke a trend of reversing hypersensitivity; evF, Pre-Dosing vs. 2 h-PD: Predicted (LS) mean diff. [1, 7]: −29.36; evF, Pre-Dosing vs. 4 h-PD: Predicted (LS) mean diff. [1, 7]: −18.71; evF, Pre-Dosing vs. 8 h-PD: Predicted (LS) mean diff. [1, 7]: −19.64; evF, Pre-Dosing vs. 24 h-PD: Predicted (LS) mean diff. ([1]; CBC 10 mg/kg p.o.): −15.44; SNL model effect score (analgesic effect) (SNL model effect; 9 hours post-dosing, single dose CBC 10 mg/kg p.o.): No significant analgesic effect; SNL model score (analgesic effect) compared to vehicle group: p (SNL model effect; D8 5 h post-dosing, single dose CBC 10 mg/kg p.o.): < 0.05; independent sedation effect score (SNL model effect; D8, 5 h and D8, 9 h post-dosing, CBC 10 mg/kg, CBD:THC 10:10 mg/kg): did not exert any sedative effect; body weight vs. vehicle over the course of the study [2]: not significantly different
CC(C)C[C@H](CN)CC(=O)O [Pregabalin, pregabalin, reference compound]	ns	−12.08	ns	−0.8299	ns	−12.91	ns	−7.967	ns	−0.02247	46.58	not observed	Yes	**** (p<0.0001, extremely/highly significant)	−29.80	• (p<0.1, an established trend towards significance)	*** (p<0.001, extremely/highly significant)	ns	ns	ns	evF, Pre-Dosing vs. 2 h-PD: Predicted (LS) mean diff. [1, 7]: −26.59; evF, Pre-Dosing vs. 4 h-PD: Predicted (LS) mean diff. [1, 7]: −9.891; evF, Pre-Dosing vs. 8 h-PD: Predicted (LS) mean diff. [1, 7]: −16.03; evF, Pre-Dosing vs. 24 h-PD: Predicted (LS) mean diff. ([1]; CBC 10 mg/kg p.o.): −9.176; analgesic or sedative effect in fine motor kinematic performance (SNL model effect; pregabalin 50 mg/kg): no analgesic or sedative effect; body weight vs. vehicle over the course of the study [2]: not significantly different
